#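 Results reflect a 48-hour exposure of cells in 96-well plates to compound at five concentrations. Abbreviation: GI50, concentration required for 50% inhibition of growth. At the TGI there is no net growth.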
# Key:
# Assay in all cases: NCI-60 cell line screen, 48 h
# [1] = test system: A498 renal
# [2] = test system: SNB-19 CNS
# [3] = test system: CCRF-CEM leukemia
# [4] = test system: OVCAR-3 ovarian
# [5] = test system: 786-0 renal
# [6] = test system: SK-MEL-2 melanoma
# [7] = test system: CAKI-1 renal
# [8] = test system: SK-OV-3 ovarian
# [9] = test system: HCC-2998 colon
# [10] = test system: HT29 colon
# [11] = test system: A549 NSCLC
# [12] = test system: MALME-3M melanoma
# [13] = test system: SNB-75 CNS
# [14] = test system: NCI-H23 lung
# [15] = test system: UO-31 renal
# [16] = test system: HOP-92 NSCLC
# [17] = test system: NCI-H522 lung
# [18] = test system: SR leukemia
# [19] = test system: U251 CNS
# [20] = test system: HCT-15 colon
# [21] = test system: TK-10 renal
# [22] = test system: MDA-MB-468 breast
# [23] = test system: NCI-H460 lung
# [24] = test system: MDA-MB-435
# [25] = test system: SW-620 colon
# [26] = test system: PC-3 prostate
# [27] = test system: UACC-62 melanoma
# [28] = test system: MOLT-4 leukemia
# [29] = test system: HS 578T breast
# [30] = test system: RXF 393 renal
# [31] = test system: SF-539 CNS
# [32] = test system: SF-295 CNS
# [33] = test system: EKVX NSCLC
# [34] = test system: OVCAR-8 ovarian
# [35] = test system: K-562 leukemia
# [36] = test system: NCI-H226 lung
# [37] = test system: SF-268 CNS
# [38] = test system: NCI/ADR-RES ovarian
# [39] = test system: SN12C renal
# [40] = test system: OVCAR-4 ovarian
# [41] = test system: RPMI-8226 leukemia
# [42] = test system: BT-549 breast
# [43] = test system: KM12 colon
# [44] = test system: OVCAR-5 ovarian
# [45] = test system: HCT-116 colon
# [46] = test system: HL-60(TB) leukemia
# [47] = test system: MDA-MB-231 breast
# [48] = test system: SK-MEL-28 melanoma
# [49] = test system: T-47D breast
# [50] = test system: IGROV1 ovarian
# [51] = test system: DU-145 prostate
# [52] = test system: HOP-62 NSCLC
# [53] = test system: UACC-257 melanoma
# [54] = test system: SK-MEL-5 melanoma
# [55] = test system: COLO 205 colon
# [56] = test system: ACHN renal
# [57] = test system: LOX IMVI melanoma
# [58] = test system: M14 melanoma
# [59] = test system: MCF7 breast
structure (smiles),measurement,setting,value
Nc1ccc(-c2ccc3ncnc(N4CCc5cc(F)c(Cl)cc54)c3c2)cn1,GI50,[1],0.185 µM
same,TGI,[1],2.56 µM
same,GI50,[2],2.86 µM
same,TGI,[2],47.8 µM
same,GI50,[3],3.31 µM
same,TGI,[3],26.2 µM
same,GI50,[4],1.35 µM
same,TGI,[4],12.3 µM
same,GI50,[5],1.82 µM
same,TGI,[5],14.7 µM
same,GI50,[6],5.55 µM
same,TGI,[6],44.6 µM
same,GI50,[7],1.11 µM
same,TGI,[7],12.7 µM
same,GI50,[8],2.18 µM
same,TGI,[8],7.09 µM
same,GI50,[9],4.3 µM
same,TGI,[9],66.1 µM
same,GI50,[10],3.26 µM
same,TGI,[10],23 µM
same,GI50,[11],1.55 µM
same,TGI,[11],15.3 µM
same,GI50,[12],1.57 µM
same,TGI,[12],10.1 µM
same,GI50,[13],0.545 µM
same,TGI,[13],4.21 µM
same,GI50,[14],5.26 µM
same,TGI,[14],> 100 µM
same,GI50,[15],0.823 µM
same,TGI,[15],14.5 µM
same,GI50,[16],2.37 µM
same,TGI,[16],20.7 µM
same,GI50,[17],2.37 µM
same,TGI,[17],19.4 µM
same,GI50,[18],3.24 µM
same,TGI,[18],> 100 µM
same,GI50,[19],3.3 µM
same,TGI,[19],24.6 µM
same,GI50,[20],3.49 µM
same,TGI,[20],30.3 µM
same,GI50,[21],0.504 µM
same,TGI,[21],9.78 µM
same,GI50,[22],0.657 µM
same,TGI,[22],2.31 µM
same,GI50,[23],2.73 µM
same,TGI,[23],15.8 µM
same,GI50,[24],3.67 µM
same,TGI,[24],16.9 µM
same,GI50,[25],5.96 µM
same,TGI,[25],27.5 µM
same,GI50,[26],2.3 µM
same,TGI,[26],27 µM
same,GI50,[27],1.91 µM
same,TGI,[27],14.6 µM
same,GI50,[28],2.68 µM
same,TGI,[28],8.4 µM
same,GI50,[29],1.14 µM
same,TGI,[29],4.6 µM
same,GI50,[30],1.14 µM
same,TGI,[30],5.22 µM
same,GI50,[31],2.83 µM
same,TGI,[31],13.3 µM
same,GI50,[32],2.39 µM
same,TGI,[32],16 µM
same,GI50,[33],1.26 µM
same,TGI,[33],13.8 µM
same,GI50,[34],4.31 µM
same,TGI,[34],> 100 µM
same,GI50,[35],6.24 µM
same,TGI,[35],> 100 µM
same,GI50,[36],1.59 µM
same,TGI,[36],40.8 µM
same,GI50,[37],2.2 µM
same,TGI,[37],50.2 µM
same,GI50,[38],3.2 µM
same,TGI,[38],35.5 µM
same,GI50,[39],2.11 µM
same,TGI,[39],> 100 µM
same,GI50,[40],3.11 µM
same,TGI,[40],18.8 µM
same,GI50,[41],3.51 µM
same,TGI,[41],70.1 µM
same,GI50,[42],1.35 µM
same,TGI,[42],8.24 µM
same,GI50,[43],6.73 µM
same,TGI,[43],75.5 µM
same,GI50,[44],2.32 µM
same,TGI,[44],> 100 µM
same,GI50,[45],3.91 µM
same,TGI,[45],28.3 µM
same,GI50,[46],2.61 µM
same,TGI,[46],20.8 µM
same,GI50,[47],2.84 µM
same,TGI,[47],15.2 µM
same,GI50,[48],2.76 µM
same,TGI,[48],15.3 µM
same,GI50,[49],0.895 µM
same,TGI,[49],10.2 µM
same,GI50,[50],0.639 µM
same,TGI,[50],2.88 µM
same,GI50,[51],1.61 µM
same,TGI,[51],15.8 µM
same,GI50,[52],1.5 µM
same,TGI,[52],27.3 µM
same,GI50,[53],5.76 µM
same,TGI,[53],23.1 µM
same,GI50,[54],3.07 µM
same,TGI,[54],14.4 µM
same,GI50,[55],5.58 µM
same,TGI,[55],21.2 µM
same,GI50,[56],0.739 µM
same,TGI,[56],12.9 µM
same,GI50,[57],3.31 µM
same,TGI,[57],24.6 µM
same,GI50,[58],3.69 µM
same,TGI,[58],18 µM
same,GI50,[59],1.77 µM
same,TGI,[59],12.8 µM

# From PubChem BioAssay (NCI)
